Assay results taken from PMC3152581 (Journal of natural products, 2010).

Target: BACE1 (memapsin-2) (Homo sapiens, UniProt P56817)
Test: BACE1 assay
Type: biochemical
Conditions: biological screening; result in words

BACE1 (memapsin-2), sequence (P56817 46-501): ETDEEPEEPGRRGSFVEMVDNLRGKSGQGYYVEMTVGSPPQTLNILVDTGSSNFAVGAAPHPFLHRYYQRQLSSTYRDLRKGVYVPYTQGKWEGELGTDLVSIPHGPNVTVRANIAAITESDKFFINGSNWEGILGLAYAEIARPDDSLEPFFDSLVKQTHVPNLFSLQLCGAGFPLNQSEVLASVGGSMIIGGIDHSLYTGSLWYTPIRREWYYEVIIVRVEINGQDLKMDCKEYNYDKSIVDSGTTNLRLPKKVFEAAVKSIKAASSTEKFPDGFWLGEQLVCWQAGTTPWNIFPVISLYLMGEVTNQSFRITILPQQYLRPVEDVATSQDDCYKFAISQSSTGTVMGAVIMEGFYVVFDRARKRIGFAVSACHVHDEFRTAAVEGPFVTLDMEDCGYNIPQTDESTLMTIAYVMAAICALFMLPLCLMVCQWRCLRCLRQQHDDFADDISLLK

## C[C@@]12CC[C@H](O)[C@@H]3COC(=C31)C(=O)c1cc3c(OCCO)cccc3cc12 [Compound 1, Xestosaprol F]
  Inhibition of BACE1 (in words): significantly less active
